Experimental data published in patent US20240374560A1, “FIBER-ENHANCED LIPOSOME AND METHODS” (Vidya Herbs, Inc., priority 2023, published 2024).
Where a name gives a salt, the structure may show the parent alone.

Key:
[1] = Pharmacokinetic study of berberine after single oral dose; assay type: in vivo, Wistar rats; conditions: male, Wistar, berberine in rat plasma
[2] = In vitro release study of berberine, dialysis set up; assay type: physicochemical; conditions: after 6 h, pH 7.4
in vivo = conditions: male, Wistar, rat, plasma, po, 60 mg/kg
[3] = after 3 h; dialysis, PBS pH 7.4, 37° C.
Protocol: The comparative in vitro release study of caffeine encapsulated in the inventive liposome versus plain caffeine (control) was performed using a dialysis set up. Prior to the diffusion experiment, the cellulose acetate dialysis membrane (Sigma Aldrich, Molecular weight cut-off (MWCO) 12 kDa) was soaked in phosphate buffered saline (PBS, pH 7.4) for 12 h. A weighed quantity of liposomal caffeine (50 mg) was suspended in 10 mL of PBS and transferred into the dialysis bag (donor compartment). The dialysis bag was placed in a beaker containing 100 mL of PBS (receptor compartment). The setup was incubated at 120 rpm for 8 h in a 37° C. shaker incubator.
A control experiment was performed simultaneously in which a plain caffeine solution was dialyzed. A 1 mL aliquot of PBS in the receptor compartment was sampled at different time points and an equal quantity of fresh PBS was replaced in the compartment after each withdrawal. The caffeine content in the samples were quantified using HPLC.

[4] = Pharmacokinetics of ursolic acid after single oral dose; conditions: ursolic acid in rat plasma
[5] = In vitro release study of vitamin C, dialysis set up; assay type: physicochemical; conditions: after 8 h, PBS pH 7.4, 37° C.
Protocol: The comparative in vitro release study of vitamin C encapsulated in the inventive liposome versus and non-encapsulated vitamin C (control) was performed using the dialysis set up. […] A weighed quantity of encapsulated vitamin C (50 mg) was suspended in 10 mL of PBS and transferred into the dialysis bag (donor compartment). […] A control experiment was performed simultaneously in which unencapsulated vitamin C solution was dialyzed. […] The absorbance of the samples was measured at 295 nm. The concentration of vitamin C in the samples was determined using a standard curve.

[6] = In vitro release study of glutathione, dialysis set up; assay type: physicochemical; conditions: after 7 h, pH 7.4
Protocol: The comparative in vitro release study of glutathione encapsulated in the inventive liposome and non-encapsulated glutathione (control) was performed using the dialysis set up. […] A control experiment was performed simultaneously in which the non-encapsulated glutathione solution was dialyzed. […] The concentration of glutathione in the samples was determined using the validated HPLC method.
The mobile phase consisted of 50 mM phosphate buffer. The injection volume was 5 μL. The detection was carried out at 230 nm.

[7] = Comparative oral bioavailability of vitamin C, crossover study in healthy volunteers; conditions: human, in vivo
Protocol: The inventive liposome comprised at least 40% w/w Vitamin C.
A group of 12 healthy volunteers were screened on Visit 1 to confirm their eligibility. Subjects fulfilling the eligibility criteria were randomized into 1 of 2-treatment sequences on Visit 2. There was a washout period of 7 days each between the 2 dosing days. […] Subjects returned to the study center for the second period. On the morning of Day 1, in each period, subjects in a fasting state (at least 10 hours before dosing) received one 600 mg capsule orally of their assigned formulation (Table 2) as per randomization scheme, with 200±2 mL of water at room temperature. The study duration was approximately 12 days (2 dosing days and 1 washout period of 7±1 days). A total of 10 blood samples were collected in each of the two study periods. The pre-dose samples (2 mL) were collected within 1 hour before dosing. The post-dose samples (1×2 mL) were collected at 30 min, 60 min, 2, 3, 4, 5, 6, 8 and 12 hours after dosing in vacuum tubes containing K2 EDTA. All blood samples were collected from an ante-cubital vein or any suitable forearm vein using an indwelling cannula. Before each blood sample is drawn, 1 mL of blood was discarded so as to prevent the saline diluted blood and heparin from interfering with the analysis.
Plasma concentrations were measured using ultra performance liquid chromatographyelectrospray ionization-tandem mass spectrometry (UPLC-ESI-MS/MS), gas chromatography mass spectrometry (GC-MS/MS) and High-Performance Liquid Chromatography (HPLC). All the pharmacokinetic parameters were compared between the two treatment groups using Pair-t-test with 5% level of significance. All statistical analysis was performed using R statistical software version 4.2.1.

Q: For COc1ccc2cc3[n+](cc2c1OC)CCc1cc2c(cc1-3)OCO2 [Control (Unformulated), berberine HCl], which AUC(0-t) ([1]; 320 mg/kg, single oral dose) is on record?
A: The AUC(0-t) was 410 ± 40 ng·h/mL.

Q: And the Tmax ([1]; 320 mg/kg, single oral dose)?
A: Its Tmax is 0.25 h.

Q: What about the half-life ([1]; 320 mg/kg, single oral dose, read-out: t½ (converted)) of the same compound?
A: Its half-life is 7.32 ± 0.61 h.

Q: And the Cmax ([1]; single oral dose (600 mg/kg encapsulated; 320 mg/kg berberine HCl))?
A: The Cmax was 15.5 ± 9.66 ng/mL.

Q: What about the “berberine cumulative release %” value [2] of the same compound?
A: Its value is 100%.

Q: Which AUC(0-t) (in vivo) does the source give for C[C@H]1[C@H](C)CC[C@]2(C(=O)O)CC[C@]3(C)C(=CC[C@@H]4[C@@]5(C)CC[C@H](O)C(C)(C)[C@@H]5CC[C@]43C)[C@H]12 [Control, ursolic acid] here?
A: The AUC(0-t) was 877 ± 44.6 ng·h/mL.

Q: And the Cmax (in vivo)?
A: Its Cmax is 201 ± 42.4 ng/mL.

Q: And the Tmax (in vivo)?
A: The Tmax was 0.75 ± 0.35 h.

Q: And the half-life (in vivo)?
A: Its half-life is 4.49 ± 0.11 h.

Q: And the caffeine released [3]?
A: The caffeine released was 100%.

Q: What about the Kel [4] of the same compound?
A: Its Kel is 0.15 ± 0.004 h⁻¹.

Q: What about the “maximum plasma concentration of UA” value [4] of the same compound?
A: Its value is 201 ± 42.43 ng/mL.

Q: What about the Kel ([4]; listed as control) of the same compound?
A: Its Kel is 0.15 ± 0.004 h⁻¹.

Q: And the “vitamin C released” value [5]?
A: The value was 67.54%.

Q: For N[C@@H](CCC(=O)N[C@@H](CS)C(=O)NCC(=O)O)C(=O)O [non-encapsulated glutathione, glutathione], which “glutathione cumulative release %” value [6] is on record?
A: Its value is 96.86%.

Q: With O=C1O[C@H]([C@@H](O)CO)C(O)=C1O [unformulated Vitamin C, vitamin C] as the compound, how does the AUC(0-inf) [7] read?
A: Its AUC(0-inf) is 6260 ± 4560 ng·h/mL.

Q: And the AUC(0-t) [7]?
A: The AUC(0-t) was 4130 ± 1740 ng·h/mL.

Q: What about the Cmax [7] of the same compound?
A: Its Cmax is 970 ng/mL.

Q: What about the MRT [7] of the same compound?
A: Its MRT is 9.3 ± 8.42 h.

Q: And the Tmax [7]?
A: The Tmax was 2.67 ± 1.07 h.

Q: What about the “Plasma concentration of vitamin C, Mean” value ([7]; 0.5 h) of the same compound?
A: Its value is 219.99.

Q: And the “Plasma concentration of vitamin C, Mean” value ([7]; 1 h)?
A: The value was 502.39.

Q: And the “Plasma concentration of vitamin C, Mean” value ([7]; 2 h)?
A: Its value is 728.44.

Q: What about the “Plasma concentration of vitamin C, Mean” value ([7]; 3 h) of the same compound?
A: The value was 680.46.

Q: And the “Plasma concentration of vitamin C, Mean” value ([7]; 4 h)?
A: Its value is 456.28.

Q: And the “Plasma concentration of vitamin C, Mean” value ([7]; 5 h)?
A: The value was 405.53.

Q: And the “Plasma concentration of vitamin C, Mean” value ([7]; 6 h)?
A: The value was 338.54.

Q: And the “Plasma concentration of vitamin C, Mean” value ([7]; 8 h)?
A: Its value is 219.14.

Q: What about the “Plasma concentration of vitamin C, Mean” value ([7]; 12 h) of the same compound?
A: Its value is 162.08.
